The values below come from patent US8957049B2, “Inhibitors of fatty acid amide hydrolase” (Infinity Pharmaceuticals, Inc., priority 2008, dated 2015).

Where only a bound is given, the exact number is not on record here.

One may read the Ki as a measure of affinity in units of concentration, obtained from inhibition or displacement.

The first assay addresses T1, human FAAH (Homo sapiens, UniProt O00519).
T1 construct: host or cells: COS-7 cells, transient transfection (FuGENE 6); 13,000 g membrane fraction solubilised in 1% Triton X-100
T1 sequence (O00519 1-579): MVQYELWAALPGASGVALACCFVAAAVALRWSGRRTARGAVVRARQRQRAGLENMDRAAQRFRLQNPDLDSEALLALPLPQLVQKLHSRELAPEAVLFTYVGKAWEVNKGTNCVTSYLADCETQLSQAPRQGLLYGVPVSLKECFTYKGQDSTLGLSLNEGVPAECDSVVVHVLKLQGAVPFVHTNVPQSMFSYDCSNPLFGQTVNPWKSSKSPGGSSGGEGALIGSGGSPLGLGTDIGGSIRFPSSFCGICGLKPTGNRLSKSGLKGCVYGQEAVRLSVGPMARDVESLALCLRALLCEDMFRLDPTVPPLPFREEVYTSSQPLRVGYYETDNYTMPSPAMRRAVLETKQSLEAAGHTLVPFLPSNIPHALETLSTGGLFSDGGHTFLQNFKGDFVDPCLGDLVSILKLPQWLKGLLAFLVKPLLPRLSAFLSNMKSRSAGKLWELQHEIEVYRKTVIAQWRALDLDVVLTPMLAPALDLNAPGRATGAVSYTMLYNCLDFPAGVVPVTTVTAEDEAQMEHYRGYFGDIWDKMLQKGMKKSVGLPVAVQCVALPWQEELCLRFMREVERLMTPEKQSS
The assay is described as follows: Human FAAH biochemical inhibition assay (AMC arachidonoyl amide fluorescence). The settings on record: Table A, read-out: Activity (Ki) of other boronic acids tested, Table A. As for the experimental part:
Exemplary compounds are set forth in the Examples provided below. Compounds were assayed as inhibitors of human FAAH using the method described in detail in Example 286.
The following assays may be used to determine the inhibition of FAAH by the compounds of the present invention: (1) a fluorescence-based assay for fatty acid amide hydrolase compatible with high-throughput screening as described in Manjunath et al., Analytical Biochemistry (2005) 343:143-151; and (2) a high-throughput screening for the discovery of inhibitors of fatty acid amide hydrolase using a microsome-based fluorescent assay. Wang et al., Biomolecular Screening (2006) 1-9.
COS-7 cells were split the day before, 1:5 into 150 mm×25 mm cell culture dishes (Corning Inc., Cat. No. 430599). Transient transfection took place at 30-40% confluency according to FuGENE 6 Transfection Reagent (Roche, Cat. No. 11814 443 001).
The FuGENE transfection 6 reagent (45 uL) was added to 1410 μL of media (DMEM, serum free without pen/strep) in a 15 mL conical tube and incubated at room temp for 5 minutes, followed by the addition of FAAH plasmid DNA (15 μg) (OriGene Cat. No. TC119221, Genbank Accession No. NM_001441.1, 0.67 ug/uL) and a further incubation of 15 minutes at room temperature. The resulting solution was added into one dish of 30-40% confluent COS-7 cells in a drop-wise manner. The COS-7 cell dish was subsequently incubated for 48 hours. The cells are then harvested.
Media was aspirated from the dishes and the cells rinsed with 10 mL PBS. The PBS was removed and 3 mL of PBS added to the dish. The dish was scraped to resuspend the cells, and the subsequent cell suspension collected into a 15 mL conical tube. The cells were pelleted by centrifugation at 1200 rpm for 5 minutes in a bench top centrifuge. PBS was removed and the cell pellet snap frozen in liquid nitrogen and stored at −80° C.
COS-7 Cells—FAAH Purification: • (1) Fractionation: Frozen cell pellets from transient transfections were thawed on ice and resuspended in 12.5 mM Hepes pH 8.0, 100 mM NaCl, 1 mM EDTA (10 mL/0.2 g cell pellet). The pellets were dounce homogenized and then sonicated to produce cell extract. The cell extract was subsequently centrifuged at 1000 g to remove cellular debris. The pellet was discarded and the supernatant centrifuged at 13,000 g for 20 minutes. The pellet contained membrane bound FAAH. The supernatant was discarded and the pellet resolubilized. • (2) Re-solubilization: The fraction of interest, (13,000 g, membrane fraction) was re-suspended in 2.3 mL re-suspension buffer (20 mM Hepes pH 7.8, 10% v/v Glycerol, 1 mM EDTA, 1% Triton X-100) and the sample incubated on ice for 1 hour and then centrifuged to remove any particulate matter. The supernatant containing solubilized human FAAH was aliquoted and snap frozen in liquid nitrogen and stored at −80° C. until use. • (3) Characterization: Protein Concentration determined by Bradford assay. • SDS gel and Western blot to confirm presence of FAAH • FAAH activity assay • Km determination—96-well assay • Linear dependence—96-well assay • Standard compound Ki determination—384-well assay
Rat FAAH biochemical assays were carried out in a 96 well flat bottom black non-treated polystyrene plates (Corning Costar Catalogue #3915). FAAH reaction buffer: 50 mM Hepes (pH 7.5), 1 mM EDTA, 0.2% Triton X-100. FAAH substrate—AMC Arachidonoyl Amide (Cayman Chemicals Company, Catalog #10005098). The reaction was read in an Envision microtiter plate reader [Excitation filter 355 nm (40 nm bandpass); Emmision filter 460 nm (25 nm bandpass)]. The raw fluorescence was plotted on the y axis and the inhibitor concentration on the x axis to give a dose response inhibition curve. The data was fitted to a single site competitive inhibition equation, fixing the Km for the rat and human enzyme to 12 μM and 9 μM respectively. […]
Consider `OB(O)c1ccc(-c2ccc(F)cc2)nc1`, for which the inhibition constant Ki lay within 10 to 100 nM.

Staying with this assay, now noted: class given in each Example, read-out: Activity (Ki, inhibition of human FAAH).
For `OB(O)c1ccc2nc(Oc3cccc(Cl)c3)ccc2c1` [Compound 197], the Ki is no more than 10 nM. Regarding `Cc1nc(Cc2nnc(-c3ccc(B(O)O)cc3)o2)cs1` [Compound 23], the inhibition constant (Ki) lay in the range of 10 to 100 nM.

On to `CCCCCC1(C)CC(c2ccc(B(O)O)cc2)=NO1` (centres unmarked) [Compound 162], for which the Ki is no more than 10 nM. On the same count and under the same terms, the result for `OB(O)c1ccc(Oc2ccc(F)nc2)cc1F` [Compound 298] reads no more than 10 nM. Same read-out and setting: the same measure for `COCc1cc(OCCc2ccccc2)ccc1B(O)O` [Compound 95]: 10 to 100 nM; for `Cc1nc(-c2ccccc2)sc1-c1ccc(B(O)O)c(F)c1` [Compound 225]: 10 to 100 nM; for `CCCc1nnc(-c2ccc(F)cc2B(O)O)o1` [Compound 22]: greater than 1000 nM. Same read-out and setting: the result for `CCCc1nnc(-c2cc(OCCc3ccccc3)ccc2B(O)O)s1` [Compound 267] reads no more than 10 nM; that for `CCCc1nc2ccc(B(O)O)cc2o1` [Compound 244], no more than 10 nM; that for `CC(C)(O)c1nnc(-c2ccc(B(O)O)cc2)o1` [Compound 73], 10 to 100 nM. As to `Cc1nc(-c2nnc(-c3cc(OCCc4ccccc4)ccc3B(O)O)o2)cs1` [Compound 269], the inhibition constant Ki fell in the range of 100 to 1000 nM. Same read-out and setting: the result for `CN(C)C(=O)/C=C/c1cc(OCCc2ccccc2)ccc1B(O)O` [Compound 103] reads 10 to 100 nM. For `Cn1ccc2c(-c3nnc(-c4ccc(B(O)O)cc4)o3)cccc21` [Compound 51], the Ki was no more than 10 nM. Still for that read-out and setting: the result for `CN(c1ccccc1)c1ccc2cc(B(O)O)ccc2n1` [Compound 205] reads 10 to 100 nM.

`OB(O)c1ccc(COc2cccc(B(O)O)c2)cc1` [Compound 326]: the inhibition constant Ki is no more than 10 nM. Consider `OB(O)c1csc(-c2nnc(Cc3ccccc3)o2)c1` [Compound 60], for which the Ki was no more than 10 nM. On the same count and under the same terms, the result for `Cn1cncc1-c1nnc(-c2cc(OCCc3ccccc3)ccc2B(O)O)o1` [Compound 268] reads 10 to 100 nM; that for `OB(O)c1ccc2ccc(Oc3ccccc3)nc2c1` [Compound 188], no more than 10 nM. Same read-out and setting: the same measure for `CC(=O)NCCc1nnc(-c2ccc(B(O)O)cc2)o1` [Compound 85]: 100 to 1000 nM. Same read-out and setting: the result for `CCCCCc1nnc(-c2ccc(B(O)O)cn2)o1` [Compound 9] reads no more than 10 nM. For the compound `OB(O)c1ccc(-c2ncc(-c3ccccc3)o2)cc1` [Compound 2], the Ki lay in the range of 10 to 100 nM.

For `CC(C)(C)OC(=O)N1CCC(Cc2nc3ccc(B(O)O)cc3o2)CC1` [Compound 299], the Ki is no more than 10 nM. Same read-out and setting: the same measure for `Cc1nc(CC(=O)N/N=C/c2ccccc2B(O)O)cs1` [Compound 123]: greater than 1000 nM; for `OB(O)c1ccc2nc(OCc3ccccc3)ccc2c1` [Compound 193]: no more than 10 nM; for `CC(C)(C)OC(=O)Nc1cccc(NC(=O)/C=C/c2ccccc2B(O)O)c1` [Compound 113]: greater than 1000 nM. Regarding `OB(O)c1ccc([C@@H]2OC[C@H](c3ccccc3)O2)cc1` [Compound 180], the Ki is no more than 10 nM. Still for that read-out and setting: the same measure for `O=C(Cc1ccccc1)N/N=C/c1ccccc1B(O)O` [Compound 121]: greater than 1000 nM. The same measure, in the same setting: the result for `O=C(CCB(O)O)N1CCN(C(=O)OCc2ccccc2)CC1` [Compound 322] reads 10 to 100 nM. Same read-out and setting: the result for `OB(O)c1ccc2cc(Oc3ccccn3)ccc2c1` [Compound 185] reads no more than 10 nM; that for `OB(O)c1ccc(-c2cc(-c3cccnc3)on2)cc1` [Compound 166], no more than 10 nM; that for `OB(O)c1ccc(-c2cn(-c3ccccc3)nn2)cc1` [Compound 130], 10 to 100 nM. Turning to `OB(O)c1ccccc1-c1nnc(CCc2ccccc2)o1` [Compound 265], the Ki was greater than 1000 nM. The same measure, in the same setting: the same measure for `COc1cccc(-c2nnc(-c3ccc(B(O)O)cc3)o2)c1OC` [Compound 44]: no more than 10 nM; for `OB(O)c1ccc(OCCc2ccccc2)cc1/C=C/CCc1ccccc1` [Compound 184]: 100 to 1000 nM.

In the case of `O=Cc1cc(OCCc2ccccc2)ccc1B(O)O` [Compound 98], the Ki was no more than 10 nM.

Consider `CCCCOc1ccc(B(O)O)c(-c2nnc(C)o2)c1` [Compound 272], for which the inhibition constant Ki lay within 10 to 100 nM. Regarding `CN(CCc1ccc(B(O)O)c(F)c1)S(=O)(=O)c1ccccc1` [Compound 312], the Ki is no more than 10 nM. For `O=C1c2ccc(B(O)O)cc2C(=O)N1CCc1ccccc1` [Compound 309], the inhibitory constant (Ki) was no more than 10 nM. The same measure, in the same setting: the result for `OB(O)c1ccc(Cn2cc(-c3ccccc3)nn2)cc1` [Example 122] reads 10 to 100 nM; that for `OB(O)c1ccc(-c2cnnn2Cc2ccccc2)cc1F` [Compound 138], 100 to 1000 nM. For `CCCCCc1nnc(-c2coc(B(O)O)c2)o1` [Compound 60], the Ki lay within 10 to 100 nM. The same measure, in the same setting: the same measure for `CC(C)(C)OC(=O)NCC(=O)N/N=C/c1cc(OCc2ccccc2)ccc1B(O)O` [Compound 117]: 10 to 100 nM.

On to `CCCCOc1ccc(B(O)O)c(-c2nnc(CCC)o2)c1` [Compound 271], for which the inhibition constant Ki was in the range of 10 to 100 nM.

On to `OB(O)c1ccc(C2=NOC(c3ccccc3)C2)cc1` (centres unmarked) [Compound 159], for which the inhibition constant (Ki) was no more than 10 nM. The same measure, in the same setting: the same measure for `OB(O)c1ccc(-c2cnn(Cc3ccccc3)c2)cc1` [Compound 227]: no more than 10 nM; for `CCCc1nnc(-c2cc(OC)ccc2B(O)O)o1` [Compound 260]: greater than 1000 nM; for `OB(O)c1ccc([C@@H]2OC[C@@H](c3ccccc3)O2)cc1` [Compound 181]: no more than 10 nM.

In the case of `OB(O)c1ccc(-n2nncc2-c2ccccc2)cc1` [Compound 144], the inhibition constant (Ki) is 10 to 100 nM. Still for that read-out and setting: the same measure for `CN(C)c1nnc(-c2ccccc2B(O)O)o1` [Compound 282]: greater than 1000 nM; for `CCCc1nnc(-c2cc(Oc3cccnc3)ccc2B(O)O)o1` [Compound 296]: 10 to 100 nM. As for `C=CCCCc1nnc(-c2ccc(B(O)O)cc2)o1` [Compound 78], the Ki was no more than 10 nM. Take `COCc1nnc(-c2ccc(B(O)O)cc2)o1` [Compound 75]: the Ki was no more than 10 nM. Same read-out and setting: the same measure for `OB1c2ccc(OCc3ccccc3)cc2C=NN1Cc1ccccc1` [Compound 109]: 10 to 100 nM; for `OB(O)c1ccc2oc(CCc3ccccc3)cc2c1` [Compound 291]: no more than 10 nM; for `OB(O)c1ccc(Cc2nnc(-c3ccccc3)o2)cc1` [Compound 64]: 10 to 100 nM.

`CCCCOc1ccc2c(c1)C=NOB2O` [Compound 277]: the Ki was 100 to 1000 nM. Same read-out and setting: the same measure for `Cc1cc(Oc2ccccc2)nc2ccc(B(O)O)cc12` [Compound 213]: no more than 10 nM; for `OB(O)c1ccc2nc(Oc3ccccc3)sc2c1` [Compound 214]: no more than 10 nM.
